Measurements as given in BigSolDB 2.1.

CN1COCN(Cc2cnc(Cl)s2)C1=N[N+](=O)[O-]
solubility (mole fraction)
Settings | 278.15 K | 283.15 K | 288.15 K | 293.15 K | 298.15 K | 303.15 K | 308.15 K | 313.15 K | 318.15 K | 323.15 K
in 1,4-dioxane | – | – | 0.00255 | 0.00328 | 0.00404 | 0.00523 | 0.00637 | 0.00792 | 0.00985 | 0.0123
in 2-ethoxyethanol | 0.00319 | 0.00411 | 0.00523 | 0.00627 | 0.00722 | 0.00839 | 0.01 | 0.0117 | 0.0141 | 0.0168
in 2-methoxyethanol | 0.00727 | 0.00895 | 0.011 | 0.013 | 0.0152 | 0.0185 | 0.0218 | 0.026 | 0.0311 | 0.0374
in DMAc | 0.0679 | 0.074 | 0.0817 | 0.0902 | 0.0988 | 0.108 | 0.12 | 0.133 | 0.145 | 0.157
in DMSO | – | – | 0.0689 | 0.0786 | 0.0902 | 0.103 | 0.117 | 0.134 | 0.152 | 0.172
in acetic acid | – | – | – | 0.013 | 0.0172 | 0.0227 | 0.0292 | 0.0387 | 0.0547 | 0.07
in acetonitrile | 0.00704 | 0.00827 | 0.0105 | 0.0125 | 0.0149 | 0.0183 | 0.0227 | 0.0278 | 0.0344 | 0.0422
in methanol | 0.000628 | 0.000817 | 0.00111 | 0.00141 | 0.00169 | 0.00225 | 0.00294 | 0.00397 | 0.00486 | 0.0063
in propionic acid | 0.000769 | 0.00113 | 0.00147 | 0.00185 | 0.00252 | 0.00329 | 0.00406 | 0.00562 | 0.00739 | 0.00939
